What was measured:
[1] = Steady-state pharmacokinetics of oral TU alone or with finasteride; assay type: in vivo, men; conditions: seventh day of dosing, all treatments (Fig. 2A)
5α-reductase = conditions: finasteride 2 mg daily; ref Steiner, 1996; cited from earlier work
[2] = system: endogenous testosterone production; conditions: 300 µg/kg subcutaneous, normal healthy men; ref Herbst et al., 2004; cited from earlier work

CCCCCCCCCCC(=O)O[C@H]1CC[C@H]2[C@@H]3CCC4=CC(=O)CC[C@]4(C)[C@H]3CC[C@]12C [TU + placebo, testosterone undecanoate]
Time after dosing at which mean serum testosterone concentrations peaked [1]: 4 h

CC(C)(C)NC(=O)[C@H]1CC[C@H]2[C@@H]3CC[C@H]4NC(=O)C=C[C@]4(C)[C@H]3CC[C@]12C [finasteride]
Reduction of circulating levels of DHT (5α-reductase): 50%

acyline
Duration of testosterone suppression [2]: 2 weeks | Time to suppression of testosterone to castrate levels [2]: ≤ 24 h

— article PMC4269219 (International journal of andrology, 2010)
